# Tested on: Meloidogyne incognita
# Test: Meloidogyne incognita (root-knot nematode) in vitro test
# Details: 300 ppm; 50 juveniles in 500 μL water, 25° C.; counted at 48, 72 and 96 h; no mortality in untreated check
# Method: Example 1: Meloidogyne incognita (Root-Knot Nematode): In Vitro Test
# The test compounds at a concentration of 300 ppm were introduced into 500 μL of distilled water containing 50 Meloidogyne incognita juveniles into 24-well plates. The suspension was lightly shaken for uniform mixing of compounds. The test plates were covered with lids, and were kept for incubation at 25° C. temperature and 90% relative humidity. […] Compounds
# (§1) Meloidogyne incognita: In Vivo Test
row,Structure (SMILES),mortality [%]
1,CO/N=C/c1cnc(SCCC=C(F)F)o1 [Compound 290],> 90

# Tested on: Meloidogyne incognita
# Test: Meloidogyne incognita in vivo test on cucumber plants (gall rating)
# Details: 300 ppm; soil application to cucumber seedlings; 15 days after application; untreated check up to 8
# Method: as §1
# Cucumber plants were grown in seedling tray containing mixture of Sand:Soil:FYM:Cocopeat in ratio of 1:1:1:1. One mL of test compound at tested concentration was applied into the soil mixture with the help of micropipette when the cucumber seedlings ten days old. Approximately 2000 freshly hatched second-stage juveniles of Meloidogyne incognita were inoculated. The treated plants were allowed to grow at 27° C. temperature in greenhouse. Observation of gall rating was recorded after 15 days of application. Plants were carefully uprooted and roots were washed thoroughly. The gall rating was observed on 0-10 scale as described by Zeck (1971) as mentioned below: • 0=no galls • 1=very few small galls • 2=numerous small galls • 3=numerous small galls of which some are grown together • 4=numerous small and some big galls • 5=25% of roots severely galled • 6=50% of roots severely galled • 7=75% of roots severely galled • 8=no healthy roots but plant is still green • 9=roots rotting and plant dying • 10=plant and roots dead
# recorded less than 3 gall rating in the tests, where there was extensive galling (up to 8) in untreated check.
row,Structure (SMILES),"gall rating (0-10 scale, Zeck 1971)"
1,CCO/N=C\c1cnc(SCCC(F)=C(F)F)o1 [Compound 13],< 3
2,CCO/N=C/c1cnc(S(=O)(=O)CCC(F)=C(F)F)s1 [Compound 23],< 3
3,CC(C)CCO/N=C/c1cnc(SCCC(F)=C(F)F)s1 [Compound 34],< 3
4,CCO/N=C/c1cnc([S+]([O-])CCC(F)=C(F)F)o1 (stereo not drawn) [Compound 36],< 3
5,CO/N=C(\C)c1cnc(S(=O)(=O)CCC(F)=C(F)F)s1 [Compound 53],< 3
6,[O-][S+](CCC(F)=C(F)F)c1ncc(/C=N\OCC2CC2)o1 (stereo not drawn) [Compound 103],< 3
7,CO/N=C(\C)c1cnc([S+]([O-])CCC(F)=C(F)F)o1 (stereo not drawn) [Compound 130],< 3
8,CCO/N=C(\C)c1cnc(SCCC(F)=C(F)F)o1 [Compound 132],< 3
9,CO/N=C(/C)c1cnc(S(=O)(=O)CCC(F)=C(F)F)o1 [Compound 134],< 3
10,Cc1csc(S(=O)(CCC(F)=C(F)F)=NC#N)n1 (stereo not drawn) [Compound 183],< 3
11,[O-][S+](CCC(F)=C(F)F)c1ncc(-c2ncon2)s1 (stereo not drawn) [Compound 213],< 3
12,CCO/N=C\c1cnc(S(=O)(=O)CCC=C(F)F)s1 [Compound 233],< 3
13,CO/N=C/c1cnc(SCCC=C(F)F)s1 [Compound 234],< 3
14,CO/N=C\c1cnc(SCCC=C(F)F)s1 [Compound 235],< 3
15,CO/N=C\c1cnc(S(=O)(=O)CCC=C(F)F)s1 [Compound 236],< 3
16,CCO/N=C/c1cnc(S(=O)(=O)CCC=C(F)F)s1 [Compound 237],< 3

row,Structure (SMILES),"gall rating (0-10 scale, Zeck 1971)"
1,CO/N=C/c1oc(SCCC(F)=C(F)F)nc1C [Compound 238],< 3
2,CO/N=C(/c1oc([S+]([O-])CCC(F)=C(F)F)nc1C)C(C)C (stereo not drawn) [Compound 273],< 3
3,[O-][S+](CCC(F)=C(F)F)c1ncc(C(F)F)s1 (stereo not drawn) [Compound 326],< 3
4,N#Cc1cnc(SCCC(F)=C(F)F)s1 [Compound 327],< 3
5,N#Cc1cnc([S+]([O-])CCC(F)=C(F)F)s1 (stereo not drawn) [Compound 328],< 3
6,O=S(=O)(CCC(F)=C(F)F)c1ncc(C(F)F)s1 [Compound 329],< 3
7,FC(F)=C(F)CCSc1ncc(C(F)F)o1 [Compound 330],< 3
8,N#Cc1cnc(SCCC(F)=C(F)F)o1 [Compound 331],< 3
9,N#Cc1cnc(S(=O)(=O)CCC(F)=C(F)F)s1 [Compound 332],< 3
10,N#Cc1cnc([S+]([O-])CCC(F)=C(F)F)o1 (stereo not drawn) [Compound 333],< 3
11,Cc1nc([S+]([O-])CCC(F)=C(F)F)sc1C(F)F (stereo not drawn) [Compound 337],< 3
12,Cc1nc([S+]([O-])CCC(F)=C(F)F)sc1C#N (stereo not drawn) [Compound 338],< 3
13,Cc1nc(S(=O)(=O)CCC(F)=C(F)F)sc1C#N [Compound 339],< 3
14,Cc1nc(S(=O)(=O)CCC(F)=C(F)F)sc1C(F)F [Compound 340],< 3
15,Cc1nc([S+]([O-])CCC(F)=C(F)F)oc1C#N (stereo not drawn) [Compound 348],< 3
16,Cc1nc(S(=O)(=O)CCC(F)=C(F)F)oc1C(F)F [Compound 350],< 3

# Reference: patent US20200337311A1 (priority 2017, published 2020)
